Laboratory results: EP0929544B1, “TRICYCLIC ANTITUMOR COMPOUNDS BEING FARNESYL PROTEIN TRANSFERASE INHIBITORS” (SCHERING CORPORATION, priority 1996, dated 1998)
Where two headings read alike, the source gives them in different places.

Molecular target: T1, Farnesyl protein transferase (FPT) (Rattus norvegicus, UniProt Q02293+Q04631)
T1 construct: Farnesyl protein transferase (FPT) was partially purified from rat brain; from tissue; host or cells: rat brain
Assay: In vitro enzyme assay: inhibition of farnesyl protein transferase (transfer of [3H]farnesyl from [3H]farnesyl pyrophosphate to Ras-CVLS)
Type: biochemical
Description: 1. In vitro enzyme assays: Inhibition of farnesyl protein transferase and geranylgeranyl protein transferase.
Farnesyl protein transferase (FPT) was partially purified from rat brain by ammonium sulfate fractionation followed by Q-Sepharose (Pharmacia, Inc.) anion exchange chromatography essentially as described by Yokoyama et al (Yokoyama, K., et al., (1991), A protein geranylgeranyltransferase from bovine brain: Implications for protein prenylation specificity, Proc. Natl. Acad. Sci USA 88: 5302-5306, the disclosure of which is incorporated herein by reference thereto). Human famesyl protein transferase was also expressed in E. coli, using cDNA clones encoding both the a and b subunits. The methods used were similar to those published (Omer, C. et al., (1993), Characterization of recombinant human farnesyl protein transferase: Cloning, expression, famesyl diphosphate binding, and functional homology with yeast prenyl-protein transferases, Biochemistry 32:5167-5176). Human famesyl protein transferase was partially-purified from the soluble protein fraction of E. coli as described above. […] Two forms of val^12-Ha-Ras protein were prepared as substrates for these enzymes, differing in their carboxy terminal sequence. One form terminated in cysteine-valine-leucine-serine (Ras-CVLS) the other in cystein-valine-leucine-leucine (Ras-CVLL). Ras-CVLS is a substrate for the famesyl protein transferase while Ras-CVLL is a substrate for geranylgeranyl protein transferase I. The cDNAs encoding these proteins were constructed so that the proteins contain an amino-terminal extension of 6 histidine residues. Both proteins were expressed in Escherichia coli and purified using metal chelate affinity chromatography. The radiolabelled isoprenyl pyrophosphate substrates, [^3H]farnesyl pyrophosphate and [^3H]geranylgeranyl pyrophosphate, were purchased from DuPont/New England Nuclear.
Several methods for measuring famesyl protein transferase activity have been described (Reiss et al 1990, Cell 62: 81; Schaber et al 1990, J. Biol. Chem. 265: 14701; Manne et al 1990, PNAS 87: 7541; and Barbacid & Manne 1993, U.S. Patent No. 5,185,248). […] The reaction was allowed to proceed for 30 minutes at room temperature and then stopped with 0.5 ml of 4% sodium dodecyl sulfate (SDS) followed by 0.5 ml of cold 30% TCA. Samples were allowed to sit on ice for 45 minutes and precipitated Ras protein was then collected on GF/C filter paper mats using a Brandel cell harvester. Filter mats were washed once with 6% TCA, 2% SDS and radioactivity was measured in a Wallac 1204 Betaplate BS liquid scintillation counter. Percent inhibition was calculated relative to the DMSO vehicle control.

[1] = read-out: FPT IC50; FPT INHIBITION
[2] = @ 110 nM; read-out: FPT inhibition (percent inhibition)
[3] = FPT INHIBITION; read-out: FPT IC50

T1 sequence (Q02293 whole entry, one chain of several): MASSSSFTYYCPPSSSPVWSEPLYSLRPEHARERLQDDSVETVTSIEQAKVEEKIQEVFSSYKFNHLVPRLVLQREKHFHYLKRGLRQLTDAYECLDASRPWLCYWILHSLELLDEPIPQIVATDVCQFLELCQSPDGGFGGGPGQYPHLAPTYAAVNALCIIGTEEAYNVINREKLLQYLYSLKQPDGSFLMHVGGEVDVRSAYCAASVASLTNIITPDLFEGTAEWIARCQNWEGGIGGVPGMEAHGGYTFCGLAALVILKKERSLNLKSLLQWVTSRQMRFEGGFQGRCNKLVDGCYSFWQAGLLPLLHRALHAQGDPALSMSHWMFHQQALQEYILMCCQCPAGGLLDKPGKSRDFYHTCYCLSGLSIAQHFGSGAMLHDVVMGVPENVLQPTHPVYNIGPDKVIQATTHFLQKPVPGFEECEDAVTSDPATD

Compound | IC50 [3] | also measured
O=C(O)CCCCC(=O)N1CCC([C@H]2c3ncc(Br)cc3CCc3cc(Cl)cc(Br)c32)CC1 [Example 55, (+)-SODIUM 4-(3,10-DIBROMO-8-CHLORO-6,11-DIHYDRO-5H-BENZO[5,6]CYCLO-HEPTA[1,2-b]PYRIDIN-11(R)-YL)-EPSILON-OXO-1-PI[…]] |  | IC50 [1]: 17 nM
O=C(CCCC(=O)N1CCC(C2c3ncc(Br)cc3CCc3cc(Cl)cc(Cl)c32)CC1)Nc1ccc(Cl)cc1 (single isomer, unassigned) [Example 20] |  | inhibition at 0.092 µM (@ 92 nM; read-out: FPT inhibition (percent inhibition)): 0%
O=C(NCCCCC(=O)N1CCC(C2c3ncc(Br)cc3CCc3cc(Cl)cc(Cl)c32)CC1)c1ccccc1 (single isomer, unassigned) [Example 22] |  | FPT inhibition (percent inhibition) (@ 0.06 µg/µL): 41%@ 0.06 µg/µL
NC(=O)NCC(=O)N1CCC(C2c3ncc(Br)cc3CCc3cc(Cl)cc(Cl)c32)CC1 (single isomer, unassigned; (+)) [Example 30] |  | inhibition at 0.11 µM [2]: 36%
CN(C)CCC(=O)N1CCC(C2c3ncc(Br)cc3CCc3cc(Cl)cc(Cl)c32)CC1 (single isomer, unassigned) [Example 5] | 56 nM | 
NC(=O)N1CCC(C2c3ncc(Br)cc3CCc3cc(Cl)cc(Cl)c32)CC1 (single isomer, unassigned; (+)) [Example 1, (+)-4-(3-BROMO-8,10-DICHLORO-6,11-DIHYDRO-5H-BENZO[5,6]CYCLOHEPTA[1,2-b]PYRIDIN-11-YL)-1-PIPERIDINE CARBOXAMIDE, reference compound] | 390 nM | 
COC(=O)CCCCCC(=O)N1CCC([C@H]2c3ncc(Br)cc3CCc3cc(Cl)cc(Br)c32)CC1 [Example 57, (+)-METHYL 4-(3,10-DIBROMO-8-CHLORO-6,11-DIHYDRO-5H-BENZO[5,6]CYCLO-HEPTA[1,2-b]PYRIDIN-11(R)-YL)-OMEGA-OXO-1-PIPERIDININE HEPTANOATE] | 11 nM | 
NC(=O)NCCCC(=O)N1CCC(C2c3ncc(Br)cc3CCc3cc(Cl)cc(Cl)c32)CC1 (single isomer, unassigned; (+)) [Example 31] | 58 nM | 
NCC(=O)N1CCC(C2c3ncc(Br)cc3CCc3cc(Cl)cc(Cl)c32)CC1 (single isomer, unassigned; (+)) [Example 3, (+)-1-(AMINOACETYL)-4-(3-BROMO-8,10-DICHLORO-6,11-DIHYDRO-5H-BENZO[5,6]CYCLO-HEPTA[1,2-b]PYRIDIN-11-YL) PIPERIDINE] | 1100 nM | 
O=C(CCCC(=O)N1CCC(C2c3ncc(Br)cc3CCc3cc(Cl)cc(Cl)c32)CC1)Nc1ccccc1 (single isomer, unassigned) [Example 19] |  | FPT inhibition (percent inhibition) (@ 0.06 µg/µL): 21%@ 0.06 µg/µL
O=C(NCCCC(=O)N1CCC(C2c3ncc(Br)cc3CCc3cc(Cl)cc(Cl)c32)CC1)Nc1ccccc1 (single isomer, unassigned) [Example 16] | > 100 nM | 
CC(=O)NCCCC(=O)N1CCC(C2c3ncc(Br)cc3CCc3cc(Cl)cc(Cl)c32)CC1 (single isomer, unassigned) [Example 15] | 63 nM | 
COC(=O)CCCC(=O)N1CCC([C@H]2c3ncc(Br)cc3CCc3cc(Cl)cc(Br)c32)CC1 [Example 51, (+)-METHYL 4-(3,10-DIBROMO-8-CHLORO-6,11-DIHYDRO-5H-BENZO[5,6]CYCLO-HEPTA[1,2-b]PYRIDIN-11(R)-YL)-DELTA-OXO-1-PIPERIDININE PENTANOATE] | 19 nM | 
CN(C)CC(=O)N1CCC(C2c3ncc(Br)cc3CCc3cc(Cl)cc(Cl)c32)CC1 (single isomer, unassigned) [Example 4] | 380 nM | 
NC(=O)CCCC(=O)N1CCC([C@H]2c3ncc(Br)cc3CCc3cc(Cl)cc(Br)c32)CC1 [Example 53, (+)-4-(3,10-DIBROMO-8-CHLORO-6,11-DIHYDRO-5H-BENZO[5,6]CYCLO-HEPTA[1,2-b]PYRIDIN-11(R)-YL)-DELTA-OXO-1-PIPERIDININE PENTANAMIDE] | 10 nM | 
NC(=O)CCCCC(=O)N1CCC([C@H]2c3ncc(Br)cc3CCc3cc(Cl)cc(Br)c32)CC1 [Example 56, (+)-4-(3,10-DIBROMO-8-CHLORO-6,11-DIHYDRO-5H-BENZO[5,6]CYCLO-HEPTA[1,2-b]PYRIDIN-11(R)-YL)-EPSILON-OXO-1-PIPERIDININE HEXANAMIDE] | 7 nM | 
NC(=O)CC(=O)N1CCC([C@H]2c3ncc(Br)cc3CCc3cc(Cl)cc(Br)c32)CC1 [Example 47, 4-(3,10-DIBROMO-8-CHLORO-6,11-DIHYDRO-5H-BENZO[5,6]CYCLO-HEPTA[1,2-b]PYRIDIN-1(R)-YL)-BETA-OXO-1-PIPERIDININE PROPANAMIDE] | 68 nM | 
O=C(CCCC(=O)N1CCC(C2c3ncc(Br)cc3CCc3cc(Cl)cc(Cl)c32)CC1)NCc1ccccc1 (single isomer, unassigned) [Example 21] |  | FPT inhibition (percent inhibition) (@ 0.06 µg/µL): 35%@ 0.06 µg/µL
CS(=O)(=O)NCC(=O)N1CCC(C2c3ncc(Br)cc3CCc3cc(Cl)cc(Cl)c32)CC1 (single isomer, unassigned; (+)) [Example 28] |  | inhibition at 0.11 µM [2]: 43%
NC(=O)CCCCCC(=O)N1CCC([C@H]2c3ncc(Br)cc3CCc3cc(Cl)cc(Br)c32)CC1 [Example 59, (+)-4-(3,10-DIBROMO-8-CHLORO-6,11-DIHYDRO-5H-BENZO[5,6]CYCLO-HEPTA[1,2-b]PYRIDIN-11(R)-YL)-OMEGA-OXO-1-PIPERIDININE HEPTANAMIDE] | 3.3 nM | 
O=C(O)CC(=O)N1CCC([C@H]2c3ncc(Br)cc3CCc3cc(Cl)cc(Br)c32)CC1 [Example 46, (+)-SODIUM 4-(3,10-DIBROMO-8-CHLORO-6,11-DIHYDRO-5H-BENZO[5,6]CYCLO-HEPTA[1,2-b]PYRIDIN-11(R)-YL)-BETA-OXO-1-PI[…]] |  | IC50 [1]: 78 nM
NC(=O)CCC(=O)N1CCC([C@H]2c3ncc(Br)cc3CCc3cc(Cl)cc(Br)c32)CC1 [Example 50, (+)-4-(3,10-DIBROMO-8-CHLORO-6,11-DIHYDRO-5H-BENZO[5,6]CYCLO-HEPTA[1,2-b]PYRIDIN-11(R)-YL)-GAMMA-OXO-1-PIPERIDININE BUTANAMIDE] | 14 nM | 
CCOC(=O)CC(=O)N1CCC([C@H]2c3ncc(Br)cc3CCc3cc(Cl)cc(Br)c32)CC1 [Example 45, (+)-ETHYL 4-(3,10-DIBROMO-8-CHLORO-6,11-DIHYDRO-5H-BENZO[5,6]CYCLO-HEPTA[1,2-b]PYRIDIN-11(R)-YL)-BETA-OXO-1-PIPERIDININE PROPANOATE] | 28 nM | 
O=C(CCCC(=O)N1CCC(C2c3ncc(Br)cc3CCc3cc(Cl)cc(Cl)c32)CC1)Nc1cccnc1 (single isomer, unassigned) [Example 17] | ~100 nM | 
CC(C)(C)OC(=O)NCC(=O)N1CCC(C2c3ncc(Br)cc3CCc3cc(Cl)cc(Cl)c32)CC1 (single isomer, unassigned) [Example 26] | 540 nM | 
O=C(CCCCCN1C(=O)C=CC1=O)N1CCC(C2c3ncc(Br)cc3CCc3cc(Cl)cc(Cl)c32)CC1 (single isomer, unassigned) [Example 23] | 620 nM | 
